Literature values in EP4545067A1, “HIGHY DOSED DERMALLY […] PREPARATION HAVING AN INCREASED DRUGLOAD IN THE TARGET CO[…] IMPROVED TREATMENT OF ECTOPARASITE INFESTATION” (Infectopharm Arzneimittel und Consilium GmbH, priority 2023, dated 2025).

Settings: bei 20 °C

In the case of CC1(C)C(C=C(Cl)Cl)C1C(=O)OCc1cccc(Oc2ccccc2)c1 (stereo not shown) [Permethrin, 3-(2,2-Dichlorethenyl)-2,2-dimethylcyclopropancarboxylsäure-(3-phenoxyphenyl)methylester], the “Löslichkeit in Wasser” value is given as 0,2 mg·l^-1.
